Square brackets hold non-standard residues; d marks the D form. Ends that are not written are not given here. Peptide text beside a SMILES is read from it. NMeE = CN[C@@H](CCC(=O)O)C(=O)O
Test: Stability of peptide in human serum (residual adhesion inhibitory activity after serum incubation)
Assay type: in vitro ADME
Conditions: for stability of activity in human serum (in words): 500 μg/mL in 90% human serum, 0 to 56 hours, FIGS. 2A to 2D; for residual adhesion inhibitory activity after serum treatment: untreated FNIII14 = 100
Experimental: FNIII14 (500 μg/mL), each of the modified peptides (500 μg/mL), or a solution thereof was incubated in human serum (final concentration 90%; 0.01% of sodium azide as a preservative having been added thereto) under a condition of 37° C. and 5% CO2 for determined periods in a range of from 0 to 56 hours. Thereafter, each sample was diluted with DMEM (-) such that the peptide concentration in each well would be 25 μg/mL, and was inoculated onto a 96-well tissue culture plate together with A375SM cells prepared at 1.5×10^4/well, the 96-well tissue culture plate having been coated with 0.5 μg/mL of FN. After the plate was subjected to culturing for a certain time, […] of a PBS (-) solution containing 4% of formalin and 5% of sucrose was gently added to wells, and left to stand at room temperature for 1 hour, whereby the cells were immobilized. After the immobilization, the number of cells observed in predetermined four fields was counted and taken as the total number of cells. Non-adhered cells were removed by washing with a PBS (-) solution three times, and then the number of adhered cells in the same four fields as those mentioned above was counted under a microscope. Assuming that the adhesion inhibitory activity of FNIII14 that was not subjected to the treatment with serum was 100, the ratio of the residual adhesion inhibitory activity of FNIII14 or the modified peptide remaining after the serum treatment was evaluated in terms of percentage. In FIGS. 2A to 2C, white diamonds represent the results obtained using FNIII14, white squares represent the results obtained using Ace-FNIII14, white circles represent the results obtained using Met-FNIII14, and white triangles represent the results obtained using D-FNIII14. In FIG. 2D, black circles represent the activity of FNIII14, and black triangles represent the activity of D-Glu-FNIII14.

Row | stability of activity in human serum (in words) (37° C.) | residual adhesion inhibitory activity after serum treatment (after 20 hours in 90% human serum, 37° C., FIG. 2A) | increase of activity in the serum (90% human serum, 37° C.) [%] | residual adhesion inhibitory activity after serum treatment (90% human serum, 37° C.) | resistance to decomposition in human serum (aminopeptidase or the like in human serum) | time at which decomposition tendency was exhibited in serum (long term stability over 60 hours, FIG. 2D) [h] | Compound
1 | rapidly lost its activity within 2 hours | about 60% |  |  |  |  | TEATITGLEPGTEYTIYVIAL [FNIII14, reference compound]
2 | more stabilized than FNIII14 |  |  |  |  |  | Ac-TEATITGLEPGTEYTIYVIAL (N-terminus assumed) [Ace-FNIII14]
3 | more stabilized than FNIII14 |  |  |  |  |  | CC[C@H](C)[C@H](NC(=O)[C@@H](NC(=O)[C@H](Cc1ccc(O)cc1)NC(=O)[C@@H](NC(=O)[C@@H](NC(=O)[C@H](Cc1ccc(O)cc1)NC(=O)[C@H](CCC(=O)O)NC(=O)[C@@H](NC(=O)CNC(=O)[C@@H]1CCCN1C(=O)[C@H](CCC(=O)O)NC(=O)[C@H](CC(C)C)NC(=O)CNC(=O)[C@@H](NC(=O)[C@@H](NC(=O)[C@@H](NC(=O)[C@H](C)NC(=O)[C@H](CCC(=O)O)N(C)C(=O)[C@@H](N)[C@@H](C)O)[C@@H](C)O)[C@@H](C)CC)[C@@H](C)O)[C@@H](C)O)[C@@H](C)O)[C@@H](C)CC)C(C)C)C(=O)N[C@@H](C)C(=O)N[C@@H](CC(C)C)C(=O)O [Met-FNIII14, [N-Me-Glu]^2-FNIII14] (H-T[NMeE]ATITGLEPGTEYTIYVIAL-OH; N-terminus and C-terminus assumed)

Row | Compound | stability of activity in human serum (in words) (37° C.) | residual adhesion inhibitory activity after serum treatment (after 20 hours in 90% human serum, 37° C., FIG. 2A) | increase of activity in the serum (90% human serum, 37° C.) [%] | residual adhesion inhibitory activity after serum treatment (90% human serum, 37° C.) | resistance to decomposition in human serum (aminopeptidase or the like in human serum) | time at which decomposition tendency was exhibited in serum (long term stability over 60 hours, FIG. 2D) [h]
4 | CC[C@H](C)[C@H](NC(=O)[C@@H](NC(=O)[C@H](Cc1ccc(O)cc1)NC(=O)[C@@H](NC(=O)[C@@H](NC(=O)[C@H](Cc1ccc(O)cc1)NC(=O)[C@H](CCC(=O)O)NC(=O)[C@@H](NC(=O)CNC(=O)[C@@H]1CCCN1C(=O)[C@H](CCC(=O)O)NC(=O)[C@H](CC(C)C)NC(=O)CNC(=O)[C@@H](NC(=O)[C@@H](NC(=O)[C@@H](NC(=O)[C@H](C)NC(=O)[C@@H](CCC(=O)O)NC(=O)[C@@H](N)[C@@H](C)O)[C@@H](C)O)[C@@H](C)CC)[C@@H](C)O)[C@@H](C)O)[C@@H](C)O)[C@@H](C)CC)C(C)C)C(=O)N[C@@H](C)C(=O)N[C@@H](CC(C)C)C(=O)O [D-Glu-FNIII14, T-[D-Glu]-ATITGLEPGTEYTIYVIAL] (H-T[dE]ATITGLEPGTEYTIYVIAL-OH; N-terminus and C-terminus assumed) | did not exhibit a decrease of its activity in the serum |  | ≥ 20 | over 100% | exhibited resistance to decomposition | ≥ 50

From patent publication US9327013B2, “Activity enhancer for anticancer agent” (TOKYO UNIVERSITY OF SCIENCE FOUNDATION, priority 2011, dated 2016)
